In US9695155B2, “Herbicidal substituted pyrimidinyloxy benzene compounds” (E. I. DU PONT DE NEMOURS AND COMPANY, priority 2013, dated 2017):

Experiments:
Assay in all cases: Test E preemergence
velvetleaf = format: in vivo, Abutilon theophrasti; settings: for Velvetleaf plant response rating: scale 0 to 100 (0 no effect, 100 complete control); for Plant response rating, Velvetleaf: scale 0 to 100, 0 no effect, 100 complete control
Description: (§1) Seeds of plant species selected from corn (Zea mays), soybean (Glycine max), velvetleaf (Abutilon theophrasti), lambsquarters (Chenopodium album), wild poinsettia (Euphorbia heterophylla), palmer pigweed (Amaranthus palmeri), waterhemp (common waterhemp, Amaranthus rudis), surinam grass (Brachiaria decumbens), large (Lg) crabgrass (Digitaria sanguinalis), Brazilian crabgrass (Digitaria horizontalis), fall panicum (Panicum dichotomiflorum), giant foxtail (Setaria faberii), green foxtail (Setaria viridis), goosegrass (Eleusine indica), johnsongrass (Sorghum halepense), ragweed (common ragweed, Ambrosia elatior), barnyardgrass (Echinochloa crus-galli), sandbur (southern sandbur, Cenchrus echinatus), arrowleaf sida (Sida rhombifolia), Italian ryegrass (Lolium multiflorum), dayflower (Virginia (VA) dayflower, Commelina virginica), field bindweed (Convolvulus arvensis), morningglory (Ipomoea coccinea), nightshade (eastern black nightshade, Solanum ptycanthum), kochia (Kochia scoparia), yellow nutsedge (Cyperus esculentus), cocklebur (common cocklebur, Xanthium strumarium), smartweed (ladysthumb smartweed, and hairy beggarticks (Bidens pilosa), were planted into a silt loam soil and treated preemergence with test chemicals formulated in a non-phytotoxic solvent mixture which included a surfactant.
(§2) At the same time, plants from these crop and weed species and also horseweed (Canada horseweed, Conyza canadensis), waterhemp_RES1, (ALS & Triazine resistant common waterhemp, Amaranthus rudis), and waterhemp_RES2, (ALS & HPPD resistant common waterhemp, Amaranthus rudis) were planted in pots containing Redi-Earth® planting medium (Scotts Company, 14111 Scottslawn Road, Marysville, Ohio 43041) comprising spaghnum peat moss, vermiculite, wetting agent and starter nutrients were treated with postemergence applications of test chemicals formulated in the same manner. Plants ranged in height from 2 to 18 cm for postemergence treatments (1- to 4-leaf stage). Treated plants and controls were maintained in a greenhouse for 14 to 21 days, after which time all species were compared to controls and visually evaluated. Plant response ratings, summarized in Table E, are based on a scale of 0 to 100 where 0 is no effect and 100 is complete control. A dash (-) response means no test result.

Brazilian crabgrass = format: in vivo, Digitaria horizontalis; settings: for Crabgrass, Brazil plant response rating: scale 0 to 100 (0 no effect, 100 complete control); for Plant response rating, Crabgrass, Brazil: scale 0 to 100, 0 no effect, 100 complete control
Description: as §1, §2

giant foxtail = format: in vivo, Setaria faberii; settings: for Foxtail, Giant plant response rating: scale 0 to 100 (0 no effect, 100 complete control); for Plant response rating, Foxtail, Giant: scale 0 to 100, 0 no effect, 100 complete control
Description: as §1, §2

sandbur = format: in vivo, Cenchrus echinatus; settings: for Sandbur plant response rating: scale 0 to 100 (0 no effect, 100 complete control); for Plant response rating, Sandbur: scale 0 to 100, 0 no effect, 100 complete control
Description: as §1, §2

arrowleaf sida = format: in vivo, Sida rhombifolia; settings: for Arrowleaf Sida plant response rating: scale 0 to 100 (0 no effect, 100 complete control); for Plant response rating, Arrowleaf Sida: scale 0 to 100, 0 no effect, 100 complete control
Description: as §1, §2

field bindweed = format: in vivo, Convolvulus arvensis; settings: for Field Bindweed plant response rating: scale 0 to 100 (0 no effect, 100 complete control); for Plant response rating, Field Bindweed: scale 0 to 100, 0 no effect, 100 complete control
Description: as §1, §2

morningglory = format: in vivo, Ipomoea coccinea; settings: for Morningglory plant response rating: scale 0 to 100 (0 no effect, 100 complete control); for Plant response rating, Morningglory: scale 0 to 100, 0 no effect, 100 complete control
Description: as §1, §2

nightshade = format: in vivo, Solanum ptycanthum; settings: for Nightshade plant response rating: scale 0 to 100 (0 no effect, 100 complete control); for Plant response rating, Nightshade: scale 0 to 100, 0 no effect, 100 complete control
Description: as §1, §2

yellow nutsedge = format: in vivo, Cyperus esculentus; settings: for Nutsedge, Yellow plant response rating: scale 0 to 100 (0 no effect, 100 complete control); for Plant response rating, Nutsedge, Yellow: scale 0 to 100, 0 no effect, 100 complete control
Description: as §1, §2

N#Cc1cccc(Oc2ncc(Cl)cn2)c1-n1cc(C(F)(F)F)cn1 [Compound 58, 3-[(5-chloro-2-pyrimidinyl)oxy]-2-[4-(trifluoromethyl)-1H-pyrazol-1-yl]benzonitrile]
Velvetleaf plant response rating (velvetleaf; 16 g ai/ha): 40
Velvetleaf plant response rating (velvetleaf; 31 g ai/ha): 70
Velvetleaf plant response rating (velvetleaf; 62 g ai/ha): 90
Plant response rating, Velvetleaf (velvetleaf; 125 g ai/ha): 100
Plant response rating, Velvetleaf (velvetleaf; 250 g ai/ha): 100
Crabgrass, Brazil plant response rating (Brazilian crabgrass; 16 g ai/ha): 100
Crabgrass, Brazil plant response rating (Brazilian crabgrass; 31 g ai/ha): 100
Crabgrass, Brazil plant response rating (Brazilian crabgrass; 62 g ai/ha): 100
Plant response rating, Crabgrass, Brazil (Brazilian crabgrass; 125 g ai/ha): 100
Plant response rating, Crabgrass, Brazil (Brazilian crabgrass; 250 g ai/ha): 100
Foxtail, Giant plant response rating (giant foxtail; 16 g ai/ha): 75
Foxtail, Giant plant response rating (giant foxtail; 31 g ai/ha): 100
Foxtail, Giant plant response rating (giant foxtail; 62 g ai/ha): 100
Plant response rating, Foxtail, Giant (giant foxtail; 125 g ai/ha): 100
Plant response rating, Foxtail, Giant (giant foxtail; 250 g ai/ha): 100
Sandbur plant response rating (sandbur; 16 g ai/ha): 0
Sandbur plant response rating (sandbur; 31 g ai/ha): 20
Sandbur plant response rating (sandbur; 62 g ai/ha): 75
Plant response rating, Sandbur (sandbur; 125 g ai/ha): 90
Plant response rating, Sandbur (sandbur; 250 g ai/ha): 95
Arrowleaf Sida plant response rating (arrowleaf sida; 16 g ai/ha, preemergence): 80
Arrowleaf Sida plant response rating (arrowleaf sida; 31 g ai/ha, preemergence): 100
Plant response rating, Arrowleaf Sida (arrowleaf sida; Preemergence, 62 g ai/ha): 100
Plant response rating, Arrowleaf Sida (arrowleaf sida; preemergence, 125 g ai/ha): 100
Plant response rating, Arrowleaf Sida (arrowleaf sida; preemergence, 250 g ai/ha): 100
Field Bindweed plant response rating (field bindweed; 16 g ai/ha): 0
Field Bindweed plant response rating (field bindweed; 31 g ai/ha): 20
Field Bindweed plant response rating (field bindweed; 62 g ai/ha): 70
Plant response rating, Field Bindweed (field bindweed; 125 g ai/ha): 98
Plant response rating, Field Bindweed (field bindweed; 250 g ai/ha): 100
Morningglory plant response rating (morningglory; 31 g ai/ha): 50
Morningglory plant response rating (morningglory; 62 g ai/ha): 100
Plant response rating, Morningglory (morningglory; 125 g ai/ha): 100
Plant response rating, Morningglory (morningglory; 250 g ai/ha): 100
Nightshade plant response rating (nightshade; 16 g ai/ha): 90
Nightshade plant response rating (nightshade; 31 g ai/ha): 98
Nightshade plant response rating (nightshade; 62 g ai/ha): 100
Plant response rating, Nightshade (nightshade; 125 g ai/ha): 100
Plant response rating, Nightshade (nightshade; 250 g ai/ha): 100
Nutsedge, Yellow plant response rating (yellow nutsedge; 16 g ai/ha): 0
Nutsedge, Yellow plant response rating (yellow nutsedge; 31 g ai/ha): 5
Nutsedge, Yellow plant response rating (yellow nutsedge; 62 g ai/ha): 25
Plant response rating, Nutsedge, Yellow (yellow nutsedge; 125 g ai/ha): 60
Plant response rating, Nutsedge, Yellow (yellow nutsedge; 250 g ai/ha): 80

N#Cc1cccc(Oc2ncc(F)cn2)c1-n1cc(Cl)cn1 [Compound 73]
Velvetleaf plant response rating (velvetleaf; 16 g ai/ha): 0
Velvetleaf plant response rating (velvetleaf; 31 g ai/ha): 20
Velvetleaf plant response rating (velvetleaf; 62 g ai/ha): 60
Plant response rating, Velvetleaf (velvetleaf; 125 g ai/ha): 70
Plant response rating, Velvetleaf (velvetleaf; 250 g ai/ha): 95
Crabgrass, Brazil plant response rating (Brazilian crabgrass; 16 g ai/ha): 25
Crabgrass, Brazil plant response rating (Brazilian crabgrass; 31 g ai/ha): 95
Crabgrass, Brazil plant response rating (Brazilian crabgrass; 62 g ai/ha): 100
Plant response rating, Crabgrass, Brazil (Brazilian crabgrass; 125 g ai/ha): 100
Plant response rating, Crabgrass, Brazil (Brazilian crabgrass; 250 g ai/ha): 100
Foxtail, Giant plant response rating (giant foxtail; 16 g ai/ha): 0
Foxtail, Giant plant response rating (giant foxtail; 31 g ai/ha): 20
Foxtail, Giant plant response rating (giant foxtail; 62 g ai/ha): 50
Plant response rating, Foxtail, Giant (giant foxtail; 125 g ai/ha): 95
Plant response rating, Foxtail, Giant (giant foxtail; 250 g ai/ha): 100
Sandbur plant response rating (sandbur; 16 g ai/ha): 10
Sandbur plant response rating (sandbur; 31 g ai/ha): 20
Sandbur plant response rating (sandbur; 62 g ai/ha): 20
Plant response rating, Sandbur (sandbur; 125 g ai/ha): 30
Plant response rating, Sandbur (sandbur; 250 g ai/ha): 35
Arrowleaf Sida plant response rating (arrowleaf sida; 16 g ai/ha, preemergence): 5
Arrowleaf Sida plant response rating (arrowleaf sida; 31 g ai/ha, preemergence): 40
Plant response rating, Arrowleaf Sida (arrowleaf sida; Preemergence, 62 g ai/ha): 80
Plant response rating, Arrowleaf Sida (arrowleaf sida; preemergence, 125 g ai/ha): 100
Plant response rating, Arrowleaf Sida (arrowleaf sida; preemergence, 250 g ai/ha): 100
Field Bindweed plant response rating (field bindweed; 16 g ai/ha): 0
Field Bindweed plant response rating (field bindweed; 31 g ai/ha): 15
Field Bindweed plant response rating (field bindweed; 62 g ai/ha): 50
Plant response rating, Field Bindweed (field bindweed; 125 g ai/ha): 75
Plant response rating, Field Bindweed (field bindweed; 250 g ai/ha): 85
Morningglory plant response rating (morningglory; 16 g ai/ha): 0
Morningglory plant response rating (morningglory; 31 g ai/ha): 0
Morningglory plant response rating (morningglory; 62 g ai/ha): 10
Plant response rating, Morningglory (morningglory; 125 g ai/ha): 30
Plant response rating, Morningglory (morningglory; 250 g ai/ha): 60
Nightshade plant response rating (nightshade; 16 g ai/ha): 65
Nightshade plant response rating (nightshade; 31 g ai/ha): 80
Nightshade plant response rating (nightshade; 62 g ai/ha): 90
Plant response rating, Nightshade (nightshade; 125 g ai/ha): 98
Plant response rating, Nightshade (nightshade; 250 g ai/ha): 100
Nutsedge, Yellow plant response rating (yellow nutsedge; 16 g ai/ha): 0
Nutsedge, Yellow plant response rating (yellow nutsedge; 31 g ai/ha): 0
Nutsedge, Yellow plant response rating (yellow nutsedge; 62 g ai/ha): 50
Plant response rating, Nutsedge, Yellow (yellow nutsedge; 125 g ai/ha): 40
Plant response rating, Nutsedge, Yellow (yellow nutsedge; 250 g ai/ha): 30
